From patent US20190300868A1, “COMPOSITIONS AND METHODS FOR CRISPR-BASED SCREENING” (The Regents of the University of California, priority 2016, published 2019)
Where a chain is given by its changes, count along the chain named.

What was measured:
[1] = system: mCherry reporter of IRE1α activation; assay: UPRE mCherry / EF1α GFP reporter in K562 reporter cells (cBA011), flow cytometry; format: cell-based, human; details: K562 reporter cells (cBA011) treated with tunicamycin
[2] = system: K562 cells; assay: Viability of cells loaded onto the device after chemical treatment (epistasis experiment); format: cell-based, human
Method: (§1) For the perturb-seq epistasis experiment, seven three-guide vectors targeting every possible combination of ATF6, IRE1α, and PERK as well as two independent three-guide vectors with three negative control guide RNAs and different barcodes were individually packaged into lentiviruses. Freshly produced (i.e. not frozen) lentiviruses were spinfected into cBA007 cells (at 33° C. for 2 h at 1000×g) in media supplemented with 8 μg/mL polybrene. The virus was removed by centrifugation and cells were resuspended in fresh media. Three days after infection, transduction efficiencies of 5-10% were measured by flow cytometry. Cells were combined into a pool with equal numbers of transduced (BFP+) cells for each vector (resulting in 2-fold excess of negative control vectors) and the combined cells were then sorted on a BD 63 FACS Aria2 to near purity. To limit heterogenous effects of cell microenvironments caused by cell settling, the sorted cells were grown with continuous agitation on an orbital shaker. Five days after infection, the pooled and sorted cells were split into three populations, which were treated as follows: 1) DMSO control treatment for 6 hr; 2) treatment with 4 μg/mL tunicamycin for 6 hr; and 3) treatment with 100 nM thapsigargin for 4 hr. […]

[3] = system: K562 cells with dCas9-KRAB; assay: Single-cell RNA-seq cell cycle analysis of thapsigargin-treated cells; format: cell-based, human; details: thapsigargin treatment, UPR epistasis experiment
Method: as §1, with “purity.” for “purity. To limit heterogenous effects of cell microenvironments caused by cell settling, the sorted cells were grown with continuous agitation on an orbital shaker. Five days after infection, the pooled and sorted cells were split into three populations, which were treated as follows: 1) DMSO control treatment for 6 hr; 2) treatment with 4 μg/mL tunicamycin for 6 hr; and 3) treatment with 100 nM thapsigargin for 4 hr.”
Single-cell analysis in FIG. 3 A population consisting of cells treated with 100 nM thapsigargin in each of our 8 genetic backgrounds was formed, along with DMSO-treated control cells. As outlined in the “Low cell count/inviable cell removal” section, cells with substantially lower than average UMI counts or that scored strongly for inviability markers from analysis were removed, as these groups partitioned away from the rest of the population in preliminary analyses. […]

[4] = system: CHOP mRNA; assay: RT-qPCR of CHOP mRNA in sgRNA-transduced cells +/- thapsigargin; format: cell-based, human; details: cells transduced with SEC61A1-, SEC61B-, or SEC61G-targeting sgRNAs; 0.5 μM Tg for 1.5 hours
Method: RT-qPCR and semi-quantitative PCR for XBP1 mRNA splicing Cells were harvested and total RNA was isolated using TRIzol® Reagent (ThermoFisher Scientific, 15596-018) and Phase Lock Gel tubes (VWR, 10052-170) or NucleoSpin® RNA (Macherey-Nagel, 67 740955.50) essentially according to manufacturers' instructions. RNA prepared by TRIzol® extraction was treated with TURBO™ DNase (ThermoFisher Scientific). RNA was converted to cDNA using SuperScript® II or SuperScript® III Reverse Transcriptase (ThermoFisher Scientific) under standard conditions with oligo(dT) primers or random hexamers with or without RNaseOUT™ Recombinant Ribonuclease Inhibitor (ThermoFisher Scientific). Quantitative PCR reactions were prepared with 1× master mix containing 1× Colorless GoTaq® Reaction Buffer (Promega, M792A), MgCl2 (0.7 mM), dNTPs (0.2 mM each), primers (0.75 μM each), and 1000× SYBR Green with GoTaq® DNA polymerase (Promega, M830B) in 22 μL reactions. Reactions were run on a LightCycler® 480 Instrument (Roche). Semi-quantitative XBP1-specific PCR reactions were prepared with 2 μL of cDNA diluted 1:10 using a master mix containing 0.9× Colorless GoTaq® Reaction Buffer (Promega, M792A), dNTPs (0.23 mM each), primers (0.45 μM each) with GoTaq® DNA polymerase (Promega, M830B) in 22.1 μL reactions. […]

[5] = system: genomically integrated GFP; assay: GFP knockdown by sgRNA expression vectors, flow cytometry; format: cell-based, human; details: paired with EGFP-NT2 protospacer; cr2 from mU6, cr3 from hU6 promoter
[6] = system: mRFP; assay: E. coli CRISPRi reporter strain, knockdown of mRFP by constant region variants; format: cell-based; details: mRFP-targeting protospacer
Description: Design and cloning of constant region variants for testing in E. coli. Constant region bases to mutate were identified by inspection of the crystal structure of Cas9 bound to guide RNA and target DNA (FIG. 9D, PDB ID codes 4OO8, 4UN3, 4ZT0 (Nishimasu et al. 2014, Anders et al. 2014, Jiang et al. 2015)). […] If applicable, sequence conservation patterns of the base in crRNAs/tracrRNAs of Streptococcus species and previous reports of constant regions carrying changes at the base (Briner et al. 2014, Dang et al. 2015) were used to determine the type of mutation. In this fashion, 15 constant region variants with mutations in different parts of the constant region were designed (FIG. 2D). The most diverse constant region variants cr2 and cr3 were designed by combining multiple individual mutations (FIG. 2D). To rapidly assess the activity of the variant constant regions, the variants were fused to a mRFP-targeting guide RNA (mRFP-NT1, sequence […] (SEQ ID NO: 36)) (Qi et al. 2013) and tested in an E. coli CRISPRi reporter strain for knockdown of mRFP (see below). To eliminate variability from copy number variation, guide RNAs were cloned into a plasmid for site-specific integration into the E. coli genome at attL and expressed from single copy from an IPTG-inducible PLlacO-1 promoter (Lutz, Bujard 1997). […]

## tunicamycin
[1]
  XBP1-dependent mCherry induction: ≤ 16 fold
  induction of GFP (EF1a promoter control reporter): no similar induction
[2]; 4 μg/mL tunicamycin for 6 hr or 100 nM thapsigargin for 4 hr
  viable cells loaded onto the device: 87.9%

## C/C=C(/C)C(=O)O[C@H]1C(C)=C2[C@H]([C@@H]1OC(=O)CCCCCCC)[C@@](C)(OC(C)=O)C[C@H](OC(=O)CCC)[C@@]1(O)[C@H]2OC(=O)[C@@]1(C)O [thapsigargin]
[2]; human, 4 hr, 100 nM
  viable cells loaded onto the device: 85.3%
[3]
  cell cycle effect: PERK-dependent cell cycle arrest in G1
[4]
  CHOP expression: CHOP upregulation

B1: cr2: sgRNA constant region, combination of 3, 5, 9, 15, SEQ ID NO: 25 (nucleic acid)
chain: GTTTGAGAGCTAAGCAGAAAGCTGCATAGCAAGTTCAAATAAGGCTAGTCCGTACACAACTTGAAAAAGTGGCAGCCGAGTCGGCTGCTTTTTTT
modifications: expressed or natural sequence
[5]
  GFP depletion in K562 cells: indistinguishable from that of the Perturb-seq vector
[6]
  function of constant region in bacteria: functional in bacteria

B2: cr3: sgRNA constant region, combination of 2, 4, 10, 14, SEQ ID NO: 26 (nucleic acid)
chain: B1 chain with G5C, G17C, A20G, G21A, C22G, C36G, A54T, C55T, G75C, C85G
modifications: expressed or natural sequence
[5]
  GFP depletion in K562 cells: indistinguishable from that of the Perturb-seq vector
[6]
  function of constant region in bacteria: functional in bacteria
